In patent US9663460B2, “Sulfur derivatives as chemokine receptor modulators” (ALLERGAN, INC., priority 2010, dated 2017):

target: CCR2 (Homo sapiens (Human), UniProt P41597); assay: Calcium activity assayed on the FLIPR Tetra in HEK-Gqi5 cells stably expressing CCR2; format: cell-based; settings: FLIPR Tetra calcium assay
Sequence (P41597 whole entry, species assumed): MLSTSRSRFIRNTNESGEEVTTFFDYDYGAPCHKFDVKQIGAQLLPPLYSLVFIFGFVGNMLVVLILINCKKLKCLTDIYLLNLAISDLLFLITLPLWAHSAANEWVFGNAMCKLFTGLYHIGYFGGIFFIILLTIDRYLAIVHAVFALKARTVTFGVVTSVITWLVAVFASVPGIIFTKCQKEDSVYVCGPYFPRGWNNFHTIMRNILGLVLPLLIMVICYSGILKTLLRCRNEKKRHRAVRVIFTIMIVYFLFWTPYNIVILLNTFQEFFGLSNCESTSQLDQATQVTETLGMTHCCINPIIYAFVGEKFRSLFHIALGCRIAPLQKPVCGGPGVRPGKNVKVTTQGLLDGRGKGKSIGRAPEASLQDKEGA

| SMILES | CCR2 % ANTAGONISM [%] | IC50 [µM] |
| --- | --- | --- |
| CN(C)CCC[S+]([O-])c1ccc(Cl)cc1NS(=O)(=O)c1cc2ccccc2o1 (stereo not drawn) [N-(5-chloro-2-{[3-(dimethylamino)propyl]sulfinyl}phenyl)-1-benzofuran-2-sulfonamide] | 81 | – |
| CN(C)CCCS(=O)(=O)c1ccc(Cl)cc1NS(=O)(=O)c1cc2ccccc2o1 [N-(5-chloro-2-{[3-(dimethylamino)propyl]sulfonyl}phenyl)-1-benzofuran-2-sulfonamide] | 96 | – |
| CN(C)CCCSc1ccc(Cl)cc1NS(=O)(=O)c1cc2ccccc2o1 [N-(5-chloro-2-{[3-(dimethylamino)propyl]thio}phenyl)-1-benzofuran-2-sulfonamide] | 106 | 2.04 |
| C[N+](C)([O-])CCCS(=O)(=O)c1ccc(Cl)cc1NS(=O)(=O)c1cc2ccccc2o1 [N-(5-chloro-2-{[3-(dimethylnitroryl)propyl]sulfonyl}phenyl)-1-benzofuran-2-sulfonamide] | 83 | – |
| O=S(=O)(Nc1cc(Cl)ccc1[S+]([O-])Cc1cccc[n+]1[O-])c1cc2ccccc2o1 (stereo not drawn) [N-(5-chloro-2-{[(1-oxidopyridin-2-yl)methyl]sulfinyl}phenyl)-1-benzofuran-2-sulfonamide] | 101 | 0.846 |
| O=S(=O)(Cc1cccc[n+]1[O-])c1ccc(Cl)cc1NS(=O)(=O)c1cc2ccccc2o1 [N-(5-chloro-2-{[(1-oxidopyridin-2-yl)methyl]sulfonyl}phenyl)-1-benzofuran-2-sulfonamide] | 102 | 0.663 |
| O=S(=O)(Cc1ccc[n+]([O-])c1)c1ccc(Cl)cc1NS(=O)(=O)c1cc2ccccc2o1 [N-(5-chloro-2-{[(1-oxidopyridin-3-yl)methyl]sulfonyl}phenyl)-1-benzofuran-2-sulfonamide] | 81 | 1.75 |
| CCCn1cnc(C[S+]([O-])c2ccc(Cl)cc2NS(=O)(=O)c2cc3ccccc3o2)c1 (stereo not drawn) [N-(5-chloro-2-{[(1-propyl-1H-imidazol-4-yl)methyl]sulfinyl}phenyl)-1-benzofuran-2-sulfonamide] | 93 | 0.806 |
| CCCn1cnc(CS(=O)(=O)c2ccc(Cl)cc2NS(=O)(=O)c2cc3ccccc3o2)c1 [N-(5-chloro-2-{[(1-propyl-1H-imidazol-4-yl)methyl]sulfonyl}phenyl)-1-benzofuran-2-sulfonamide] | 98 | 0.804 |
| CCCn1cnc(CSc2ccc(Cl)cc2NS(=O)(=O)c2cc3ccccc3o2)c1 [N-(5-chloro-2-{[(1-propyl-1H-imidazol-4-yl)methyl]thio}phenyl)-1-benzofuran-2-sulfonamide] | 79 | 1.28 |
| O=c1[nH]cc(C[S+]([O-])c2ccc(Cl)cc2NS(=O)(=O)c2cc3ccccc3o2)c(=O)[nH]1 (stereo not drawn) [N-(5-chloro-2-{[(2,4-dioxo-1,2,3,4-tetrahydropyrimidin-5-yl)methyl]sulfinyl}phenyl)-1-benzofuran-2-sulfonamide] | 21 | 3.08 |
| O=c1[nH]cc(CS(=O)(=O)c2ccc(Cl)cc2NS(=O)(=O)c2cc3ccccc3o2)c(=O)[nH]1 [N-(5-chloro-2-{[(2,4-dioxo-1,2,3,4-tetrahydropyrimidin-5-yl)methyl]sulfonyl}phenyl)-1-benzofuran-2-sulfonamide] | 0 | – |
| O=c1cc(C[S+]([O-])c2ccc(Cl)cc2NS(=O)(=O)c2cc3ccccc3o2)[nH]c(=O)[nH]1 (stereo not drawn) [N-(5-chloro-2-{[(2,6-dioxo-1,2,3,6-tetrahydropyrimidin-4-yl)methyl]sulfinyl}phenyl)-1-benzofuran-2-sulfonamide] | 62 | – |
| O=c1cc(CS(=O)(=O)c2ccc(Cl)cc2NS(=O)(=O)c2cc3ccccc3o2)[nH]c(=O)[nH]1 [N-(5-chloro-2-{[(2,6-dioxo-1,2,3,6-tetrahydropyrimidin-4-yl)methyl]sulfonyl}phenyl)-1-benzofuran-2-sulfonamide] | 70 | – |
| O=c1cc(CSc2ccc(Cl)cc2NS(=O)(=O)c2cc3ccccc3o2)[nH]c(=O)[nH]1 [N-(5-chloro-2-{[(2,6-dioxo-1,2,3,6-tetrahydropyrimidin-4-yl)methyl]thio}phenyl)-1-benzofuran-2-sulfonamide] | 98 | 2.37 |
| O=C1NCC(C[S+]([O-])c2ccc(Cl)cc2NS(=O)(=O)c2cc3ccccc3o2)O1 (stereo not drawn) [N-(5-chloro-2-{[(2-oxo-1,3-oxazolidin-5-yl)methyl]sulfinyl}phenyl)-1-benzofuran-2-sulfonamide] | 79 | 2.13 |
| O=C1NCC(CS(=O)(=O)c2ccc(Cl)cc2NS(=O)(=O)c2cc3ccccc3o2)O1 (stereo not drawn) [N-(5-chloro-2-{[(2-oxo-1,3-oxazolidin-5-yl)methyl]sulfonyl}phenyl)-1-benzofuran-2-sulfonamide] | 98 | 2.56 |
| O=[N+]([O-])c1cc(C[S+]([O-])c2ccc(Cl)cc2NS(=O)(=O)c2cc3ccccc3o2)n[nH]1 (stereo not drawn) [N-(5-chloro-2-{[(5-nitro-1H-pyrazol-3-yl)methyl]sulfinyl}phenyl)-1-benzofuran-2-sulfonamide] | 94 | 0.752 |
| O=[N+]([O-])c1cc(CSc2ccc(Cl)cc2NS(=O)(=O)c2cc3ccccc3o2)n[nH]1 [N-(5-chloro-2-{[(5-nitro-1H-pyrazol-3-yl)methyl]thio}phenyl)-1-benzofuran-2-sulfonamide] | 91 | – |
| N#Cc1ccc(SCc2ccccc2)c(NS(=O)(=O)c2cc3ccccc3o2)c1 [N-[2-(benzylthio)-5-cyanophenyl]-1-benzofuran-2-sulfonamide] | 78 | 3.84 |
| NC(=O)NCC[S+]([O-])c1ccc(Cl)cc1NS(=O)(=O)c1cc2ccccc2o1 (stereo not drawn) [N-[2-({2-[(aminocarbonyl)amino]ethyl}sulfinyl)-5-chlorophenyl]-1-benzofuran-2-sulfonamide] | 64 | 1.89 |
| NC(=O)NCCS(=O)(=O)c1ccc(Cl)cc1NS(=O)(=O)c1cc2ccccc2o1 [N-[2-({2-[(aminocarbonyl)amino]ethyl}sulfonyl)-5-chlorophenyl]-1-benzofuran-2-sulfonamide] | 68 | 2 |
| CC(C)c1ccc(S(=O)(=O)Nc2cc(Cl)ccc2[S+](C)[O-])cc1 (stereo not drawn) [N-[5-chloro-2-(methylsulfinyl)phenyl]-4-isopropylbenzenesulfonamide] | 68 | 0.934 |

Other lines, results leading:

| CCR2 % ANTAGONISM [%] | IC50 [µM] | SMILES |
| --- | --- | --- |
| 89 | 0.279 | Cc1n[nH]c(C)c1CCSc1ccc(Cl)cc1NS(=O)(=O)c1cc2ccccc2o1 [N-(5-chloro-2-{[2-(3,5-dimethyl-1H-pyrazol-4-yl)ethyl]thio}phenyl)-1-benzofuran-2-sulfonamide] |
| 101 | 0.646 | O=S(=O)(Nc1cc(Cl)ccc1[S+]([O-])Cc1ccc[n+]([O-])c1)c1cc2ccccc2o1 (stereo not drawn) [N-(5-chloro-2-{[(1-oxidopyridin-3-yl)methyl]sulfinyl}phenyl)-1-benzofuran-2-sulfonamide] |
| 95 | 0.079 | O=S(=O)(Nc1cc(Cl)ccc1[S+]([O-])Cc1cccnc1F)c1cc2ccccc2o1 (stereo not drawn) [N-(5-chloro-2-{[(2-fluoropyridin-3-yl)methyl]sulfinyl}phenyl)-1-benzofuran-2-sulfonamide] |
| 88 | 0.079 | O=S(=O)(Cc1cccnc1F)c1ccc(Cl)cc1NS(=O)(=O)c1cc2ccccc2o1 [N-(5-chloro-2-{[(2-fluoropyridin-3-yl)methyl]sulfonyl}phenyl)-1-benzofuran-2-sulfonamide] |
| 76 | 0.094 | O=S(=O)(Nc1cc(Cl)ccc1SCc1cccnc1F)c1cc2ccccc2o1 [N-(5-chloro-2-{[(2-fluoropyridin-3-yl)methyl]thio}phenyl)-1-benzofuran-2-sulfonamide] |
| 85 | 0.027 | O=S(=O)(Nc1cc(Cl)ccc1[S+]([O-])Cc1ccccc1)c1cc2ccccc2o1 (stereo not drawn) [N-[2-(benzylsulfinyl)-5-chlorophenyl]-1-benzofuran-2-sulfonamide] |
| 105 | 0.05 | N#Cc1ccc([S+]([O-])Cc2ccccc2)c(NS(=O)(=O)c2cc3ccccc3o2)c1 (stereo not drawn) [N-[2-(benzylsulfinyl)-5-cyanophenyl]-1-benzofuran-2-sulfonamide] |
| 90 | 0.034 | O=S(=O)(Cc1ccccc1)c1ccc(Cl)cc1NS(=O)(=O)c1cc2ccccc2o1 [N-[2-(benzylsulfonyl)-5-chlorophenyl]-1-benzofuran-2-sulfonamide] |
| 95 | 0.056 | N#Cc1ccc(S(=O)(=O)Cc2ccccc2)c(NS(=O)(=O)c2cc3ccccc3o2)c1 [N-[2-(benzylsulfonyl)-5-cyanophenyl]-1-benzofuran-2-sulfonamide] |
| 90 | 0.129 | O=S(=O)(Nc1cc(Cl)ccc1SCc1ccccc1)c1cc2ccccc2o1 [N-[2-(benzylthio)-5-chlorophenyl]-1-benzofuran-2-sulfonamide] |
| 103 | 0.08 | NC(=O)NCCSc1ccc(Cl)cc1NS(=O)(=O)c1cc2ccccc2o1 [N-[2-({2-[(aminocarbonyl)amino]ethyl}thio)-5-chlorophenyl]-1-benzofuran-2-sulfonamide] |
| 98 | 0.011 | C[S+]([O-])c1ccc(Cl)cc1NS(=O)(=O)c1cc2ccccc2o1 (stereo not drawn) [N-[5-chloro-2-(methylsulfinyl)phenyl]-1-benzofuran-2-sulfonamide] |
| 98 | 0.236 | C[S+]([O-])c1ccc(Cl)cc1NS(=O)(=O)c1ccc(F)cc1F (stereo not drawn) [N-[5-chloro-2-(methylsulfinyl)phenyl]-2,4-difluorobenzenesulfonamide] |
| 97 | 0.054 | C[S+]([O-])c1ccc(Cl)cc1NS(=O)(=O)c1ccc(C(F)(F)F)c([N+](=O)[O-])c1 (stereo not drawn) [N-[5-chloro-2-(methylsulfinyl)phenyl]-3-nitro-4-(trifluoromethyl)benzenesulfonamide] |
| 95 | 0.258 | C[S+]([O-])c1ccc(Cl)cc1NS(=O)(=O)c1ccc(I)cc1 (stereo not drawn) [N-[5-chloro-2-(methylsulfinyl)phenyl]-4-iodobenzenesulfonamide] |
